Source: ChEMBL document CHEMBL4507288 (2021)

Tests used:
Settings in all cases: Compound concentration 1000.0 nM
[1] = biological target: MAP kinase-activated protein kinase 2 (Homo sapiens) (UniProt P49137)
[2] = biological target: Activin receptor type-1B (Homo sapiens) (UniProt P36896)
[3] = biological target: Receptor tyrosine-protein kinase erbB-2 (Homo sapiens) (UniProt P04626)
[4] = biological target: Mitogen-activated protein kinase 6 (Homo sapiens) (UniProt Q16659)
[5] = biological target: Mitogen-activated protein kinase 12 (Homo sapiens) (UniProt P53778)
[6] = biological target: Homeodomain-interacting protein kinase 2 (Homo sapiens) (UniProt Q9H2X6)
[7] = biological target: Calcium/calmodulin-dependent protein kinase type IV (Homo sapiens) (UniProt Q16566)
[8] = tested on: Epidermal growth factor receptor (Homo sapiens), P00533 [T790M]
[9] = biological target: Serine/threonine-protein kinase SIK2 (Homo sapiens) (UniProt Q9H0K1)
[10] = tested on: Epidermal growth factor receptor (Homo sapiens), P00533 [L858R]
[11] = biological target: RAC-beta serine/threonine-protein kinase (Homo sapiens) (UniProt P31751)
[12] = biological target: Testis-specific serine/threonine-protein kinase 1 (Homo sapiens) (UniProt Q9BXA7)
[13] = biological target: Insulin receptor-related protein (Homo sapiens) (UniProt P14616)
[14] = biological target: Serine/threonine-protein kinase Nek1 (Homo sapiens) (UniProt Q96PY6)
[15] = biological target: TGF-beta receptor type-1 (Homo sapiens) (UniProt P36897)
[16] = biological target: Protein-tyrosine kinase 2-beta (Homo sapiens) (UniProt Q14289)
[17] = biological target: Bone morphogenetic protein receptor type-1B (Homo sapiens) (UniProt O00238)
[18] = biological target: Tyrosine-protein kinase JAK3 (Homo sapiens) (UniProt P52333)
[19] = biological target: AP2-associated protein kinase 1 (Homo sapiens) (UniProt Q2M2I8)
[20] = tested on: Leucine-rich repeat serine/threonine-protein kinase 2 (Homo sapiens), Q5S007 [G2019S]
[21] = biological target: Dual specificity mitogen-activated protein kinase kinase 6 (Homo sapiens) (UniProt P52564)
[22] = biological target: Discoidin domain-containing receptor 2 (Homo sapiens) (UniProt Q16832)
[23] = tested on: Mast/stem cell growth factor receptor Kit (Homo sapiens), P10721 [D816V]
[24] = biological target: Tyrosine-protein kinase Fyn (Homo sapiens) (UniProt P06241)
[25] = biological target: Receptor tyrosine-protein kinase erbB-3 (Homo sapiens) (UniProt P21860)
[26] = biological target: LIM domain kinase 1 (Homo sapiens) (UniProt P53667)
[27] = tested on: ALK tyrosine kinase receptor (Homo sapiens), Q9UM73 [L1196M]
[28] = biological target: Beta-adrenergic receptor kinase 1 (Homo sapiens) (UniProt P25098)
[29] = biological target: Casein kinase II subunit alpha (Homo sapiens) (UniProt P68400)
[30] = tested on: Receptor-type tyrosine-protein kinase FLT3 (Homo sapiens), P36888 [UNDEFINED MUTATION]
[31] = biological target: Phosphatidylinositol 5-phosphate 4-kinase type-2 beta (Homo sapiens) (UniProt P78356)
[32] = tested on: Phosphatidylinositol 4,5-bisphosphate 3-kinase catalytic subunit alpha isoform (Homo sapiens), P42336 [H1047Y]
[33] = biological target: Serine/threonine-protein kinase MRCK beta (Homo sapiens) (UniProt Q9Y5S2)
[34] = biological target: Receptor-interacting serine/threonine-protein kinase 4 (Homo sapiens) (UniProt P57078)
[35] = biological target: Mitogen-activated protein kinase 3 (Homo sapiens) (UniProt P27361)
[36] = biological target: Cyclin-dependent kinase 18 (Homo sapiens) (UniProt Q07002)
[37] = biological target: Serine/threonine-protein kinase Nek7 (Homo sapiens) (UniProt Q8TDX7)
[38] = tested on: Tyrosine-protein kinase ABL1 (Homo sapiens), P00519 [M351T]
[39] = biological target: RAF proto-oncogene serine/threonine-protein kinase (Homo sapiens) (UniProt P04049)
[40] = biological target: Calcium/calmodulin-dependent protein kinase type II subunit alpha (Homo sapiens) (UniProt Q9UQM7)
[41] = biological target: Receptor-type tyrosine-protein kinase FLT3 (Homo sapiens) (UniProt P36888)
[42] = biological target: Phosphatidylinositol 4,5-bisphosphate 3-kinase catalytic subunit delta isoform (Homo sapiens) (UniProt O00329)
[43] = biological target: Casein kinase I isoform alpha (Homo sapiens) (UniProt P48729)
[44] = biological target: Angiopoietin-1 receptor (Homo sapiens) (UniProt Q02763)
[45] = biological target: Serine/threonine-protein kinase haspin (Homo sapiens) (UniProt Q8TF76)

Measured: residual activity

Sequence of Calcium/calmodulin-dependent protein kinase type II subunit alpha (Homo sapiens) (Q9UQM7 whole entry): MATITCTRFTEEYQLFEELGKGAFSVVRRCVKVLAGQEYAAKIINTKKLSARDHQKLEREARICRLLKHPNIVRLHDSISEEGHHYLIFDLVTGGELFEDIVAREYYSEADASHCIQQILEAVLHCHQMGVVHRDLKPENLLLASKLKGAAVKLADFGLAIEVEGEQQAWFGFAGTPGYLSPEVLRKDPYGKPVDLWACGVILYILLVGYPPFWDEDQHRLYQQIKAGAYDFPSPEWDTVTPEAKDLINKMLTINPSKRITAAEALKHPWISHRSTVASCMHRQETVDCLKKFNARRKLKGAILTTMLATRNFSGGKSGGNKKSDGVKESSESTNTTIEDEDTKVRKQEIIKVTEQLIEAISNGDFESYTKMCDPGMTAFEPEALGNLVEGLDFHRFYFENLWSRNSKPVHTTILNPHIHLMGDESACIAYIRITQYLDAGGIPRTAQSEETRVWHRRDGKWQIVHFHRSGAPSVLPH
Sequence of Casein kinase II subunit alpha (Homo sapiens) (P68400 whole entry, looked up): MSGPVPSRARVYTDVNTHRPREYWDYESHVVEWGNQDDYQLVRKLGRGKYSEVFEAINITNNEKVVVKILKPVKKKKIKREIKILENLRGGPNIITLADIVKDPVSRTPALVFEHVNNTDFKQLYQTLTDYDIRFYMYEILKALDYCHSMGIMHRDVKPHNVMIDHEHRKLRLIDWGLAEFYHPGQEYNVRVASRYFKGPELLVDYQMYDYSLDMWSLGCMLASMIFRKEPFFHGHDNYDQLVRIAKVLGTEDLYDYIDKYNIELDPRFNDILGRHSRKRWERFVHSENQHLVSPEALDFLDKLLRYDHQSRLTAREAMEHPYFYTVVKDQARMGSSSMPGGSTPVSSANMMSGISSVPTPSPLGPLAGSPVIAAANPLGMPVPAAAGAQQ
Sequence of Protein-tyrosine kinase 2-beta (Homo sapiens) (Q14289 whole entry, looked up): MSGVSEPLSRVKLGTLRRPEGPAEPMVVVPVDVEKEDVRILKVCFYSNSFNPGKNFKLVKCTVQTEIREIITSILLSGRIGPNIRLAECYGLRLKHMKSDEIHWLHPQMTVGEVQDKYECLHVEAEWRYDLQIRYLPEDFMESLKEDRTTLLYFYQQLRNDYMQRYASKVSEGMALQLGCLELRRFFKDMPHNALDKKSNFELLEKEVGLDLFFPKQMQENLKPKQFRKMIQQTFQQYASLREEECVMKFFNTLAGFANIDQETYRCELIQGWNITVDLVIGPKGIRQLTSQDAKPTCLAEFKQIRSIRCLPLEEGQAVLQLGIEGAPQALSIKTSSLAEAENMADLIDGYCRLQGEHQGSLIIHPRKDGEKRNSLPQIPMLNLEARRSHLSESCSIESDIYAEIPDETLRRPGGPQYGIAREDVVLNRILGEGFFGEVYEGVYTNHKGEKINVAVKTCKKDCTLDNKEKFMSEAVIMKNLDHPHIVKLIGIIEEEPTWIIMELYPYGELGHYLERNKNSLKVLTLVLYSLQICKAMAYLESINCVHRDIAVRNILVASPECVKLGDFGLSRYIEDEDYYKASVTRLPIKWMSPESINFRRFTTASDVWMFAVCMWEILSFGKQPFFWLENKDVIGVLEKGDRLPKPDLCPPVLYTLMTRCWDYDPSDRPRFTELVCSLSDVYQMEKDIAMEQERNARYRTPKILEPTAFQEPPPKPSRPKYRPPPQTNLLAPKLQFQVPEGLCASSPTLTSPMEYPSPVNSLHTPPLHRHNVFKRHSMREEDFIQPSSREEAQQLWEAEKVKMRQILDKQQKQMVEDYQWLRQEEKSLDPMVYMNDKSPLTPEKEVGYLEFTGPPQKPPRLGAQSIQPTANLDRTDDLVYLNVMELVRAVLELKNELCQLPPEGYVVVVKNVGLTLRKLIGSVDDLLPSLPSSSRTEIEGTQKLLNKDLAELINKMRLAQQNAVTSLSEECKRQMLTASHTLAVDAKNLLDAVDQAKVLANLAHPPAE
Sequence of Mitogen-activated protein kinase 3 (Homo sapiens) (P27361 whole entry): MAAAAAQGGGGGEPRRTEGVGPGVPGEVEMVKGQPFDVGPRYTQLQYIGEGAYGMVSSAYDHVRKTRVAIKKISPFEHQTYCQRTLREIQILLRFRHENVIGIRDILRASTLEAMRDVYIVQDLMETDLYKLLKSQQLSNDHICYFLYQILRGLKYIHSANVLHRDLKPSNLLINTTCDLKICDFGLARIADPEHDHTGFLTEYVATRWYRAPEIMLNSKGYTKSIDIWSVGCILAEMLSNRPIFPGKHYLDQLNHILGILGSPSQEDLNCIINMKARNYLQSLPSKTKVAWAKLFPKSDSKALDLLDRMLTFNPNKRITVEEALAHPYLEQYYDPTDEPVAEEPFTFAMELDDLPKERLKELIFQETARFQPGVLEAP
Sequence of Mitogen-activated protein kinase 12 (Homo sapiens) (P53778 whole entry): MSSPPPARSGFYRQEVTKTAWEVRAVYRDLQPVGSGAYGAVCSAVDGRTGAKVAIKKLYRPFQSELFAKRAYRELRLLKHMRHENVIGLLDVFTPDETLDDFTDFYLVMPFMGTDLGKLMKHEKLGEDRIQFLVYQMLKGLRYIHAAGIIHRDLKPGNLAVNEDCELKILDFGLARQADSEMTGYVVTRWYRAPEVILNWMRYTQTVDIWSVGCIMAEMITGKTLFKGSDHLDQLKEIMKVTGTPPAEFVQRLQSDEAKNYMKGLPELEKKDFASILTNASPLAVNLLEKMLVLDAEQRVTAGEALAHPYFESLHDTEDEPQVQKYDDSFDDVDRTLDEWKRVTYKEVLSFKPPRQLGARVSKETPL
Sequence of Bone morphogenetic protein receptor type-1B (Homo sapiens) (O00238 whole entry): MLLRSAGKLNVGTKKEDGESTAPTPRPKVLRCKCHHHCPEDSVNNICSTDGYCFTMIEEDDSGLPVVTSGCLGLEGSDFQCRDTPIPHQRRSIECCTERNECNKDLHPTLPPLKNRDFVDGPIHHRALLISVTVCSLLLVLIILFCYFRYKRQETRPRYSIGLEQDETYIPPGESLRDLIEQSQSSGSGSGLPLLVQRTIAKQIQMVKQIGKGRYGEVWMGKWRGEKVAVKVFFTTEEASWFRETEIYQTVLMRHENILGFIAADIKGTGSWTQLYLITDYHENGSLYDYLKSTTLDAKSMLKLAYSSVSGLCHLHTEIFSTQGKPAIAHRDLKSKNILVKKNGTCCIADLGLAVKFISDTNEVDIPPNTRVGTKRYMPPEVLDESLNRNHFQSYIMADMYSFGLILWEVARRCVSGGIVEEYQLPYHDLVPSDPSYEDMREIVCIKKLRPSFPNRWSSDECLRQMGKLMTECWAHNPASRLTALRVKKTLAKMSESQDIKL
Sequence of Tyrosine-protein kinase Fyn (Homo sapiens) (P06241 2-537 limits assumed): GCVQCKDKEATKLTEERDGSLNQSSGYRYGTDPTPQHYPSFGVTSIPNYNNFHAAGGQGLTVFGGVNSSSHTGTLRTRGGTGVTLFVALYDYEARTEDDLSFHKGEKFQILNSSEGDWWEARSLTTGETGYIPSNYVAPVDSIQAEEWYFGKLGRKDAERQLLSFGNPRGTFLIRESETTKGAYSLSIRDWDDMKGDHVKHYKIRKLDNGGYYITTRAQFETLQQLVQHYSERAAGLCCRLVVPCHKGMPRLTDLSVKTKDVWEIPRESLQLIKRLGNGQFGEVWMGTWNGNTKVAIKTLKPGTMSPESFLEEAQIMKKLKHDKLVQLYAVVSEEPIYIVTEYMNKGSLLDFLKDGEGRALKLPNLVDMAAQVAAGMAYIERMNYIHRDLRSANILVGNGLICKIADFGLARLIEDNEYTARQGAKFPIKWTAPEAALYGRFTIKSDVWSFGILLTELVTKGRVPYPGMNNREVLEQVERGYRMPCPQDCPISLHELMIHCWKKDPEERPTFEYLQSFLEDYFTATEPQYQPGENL
Sequence of Mast/stem cell growth factor receptor Kit (Homo sapiens), P10721 [D816V] (P10721 whole entry D816V): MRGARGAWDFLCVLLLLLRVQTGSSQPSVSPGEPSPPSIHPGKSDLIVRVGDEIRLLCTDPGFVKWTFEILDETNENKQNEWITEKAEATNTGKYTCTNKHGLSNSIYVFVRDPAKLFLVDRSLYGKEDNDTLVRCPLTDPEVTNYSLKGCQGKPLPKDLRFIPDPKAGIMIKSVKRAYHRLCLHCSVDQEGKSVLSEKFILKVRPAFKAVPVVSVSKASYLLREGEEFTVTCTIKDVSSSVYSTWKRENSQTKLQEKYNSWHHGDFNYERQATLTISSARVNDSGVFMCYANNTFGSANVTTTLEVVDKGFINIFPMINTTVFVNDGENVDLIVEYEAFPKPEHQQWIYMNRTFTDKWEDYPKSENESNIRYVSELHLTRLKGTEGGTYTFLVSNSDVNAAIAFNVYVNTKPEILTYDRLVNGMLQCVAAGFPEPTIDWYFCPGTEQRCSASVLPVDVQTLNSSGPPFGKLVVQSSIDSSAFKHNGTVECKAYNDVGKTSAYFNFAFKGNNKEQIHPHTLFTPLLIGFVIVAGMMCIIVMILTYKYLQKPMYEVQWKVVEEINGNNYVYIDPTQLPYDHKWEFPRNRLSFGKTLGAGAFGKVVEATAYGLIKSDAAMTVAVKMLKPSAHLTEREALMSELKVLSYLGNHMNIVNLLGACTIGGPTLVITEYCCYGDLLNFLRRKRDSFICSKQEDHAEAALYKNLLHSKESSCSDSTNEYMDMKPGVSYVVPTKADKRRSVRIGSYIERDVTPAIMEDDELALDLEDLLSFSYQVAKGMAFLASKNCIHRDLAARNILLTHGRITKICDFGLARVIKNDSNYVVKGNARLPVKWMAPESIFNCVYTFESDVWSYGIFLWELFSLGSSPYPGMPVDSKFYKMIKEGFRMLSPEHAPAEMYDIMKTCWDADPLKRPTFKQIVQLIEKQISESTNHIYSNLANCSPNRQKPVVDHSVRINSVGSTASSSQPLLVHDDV
Sequence of Dual specificity mitogen-activated protein kinase kinase 6 (Homo sapiens) (P52564 whole entry, the tested form may be a part): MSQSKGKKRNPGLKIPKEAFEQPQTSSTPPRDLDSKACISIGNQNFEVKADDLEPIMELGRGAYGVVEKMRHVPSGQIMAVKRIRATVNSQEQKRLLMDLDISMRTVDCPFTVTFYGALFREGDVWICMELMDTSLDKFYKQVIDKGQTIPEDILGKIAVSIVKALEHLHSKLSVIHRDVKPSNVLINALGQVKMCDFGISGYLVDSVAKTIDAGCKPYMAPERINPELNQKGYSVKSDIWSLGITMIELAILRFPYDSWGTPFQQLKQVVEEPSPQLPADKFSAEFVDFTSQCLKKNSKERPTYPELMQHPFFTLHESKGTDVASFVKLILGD

O=S(=O)(NC1CCC(c2cc(F)ccc2F)(S(=O)(=O)c2ccc(Cl)cc2)CC1)C(F)(F)F (stereo not given) [MRK-560]
inactive: [1] 93% | [2] 87% | [3] 91% | [4] 100% | [5] 89% | [6] 81% | [7] 100% | [8] 93% | [9] 100% | [10] 100% | [11] 99% | [12] 100% | [13] 100% | [14] 100% | [15] 100% | [16] 100% | [17] 100% | [18] 100% | [19] 96% | [20] 100% | [21] 100% | [22] 100% | [23] 92% | [24] 85% | [25] 93% | [26] 86% | [27] 94% | [28] 73% | [29] 85% | [30] 91% | [31] 68% | [32] 100% | [33] 100% | [34] 91% | [35] 100% | [36] 100% | [37] 100% | [38] 100% | [39] 100% | [40] 100% | [41] 100% | [42] 100% | [43] 100% | [44] 85% | [45] 69%
